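Five compound concentrations were applied to cells in 96-well plates for 48 hours; endpoints were derived by simple linear interpolation of the resulting dose-response curve. GI50 = concentration required for 50% inhibition of growth.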 Activity calls are given as the source filed them. Cut-off read from the data, not from the text of the source: active = GI50 up to about 1.1 µM and inactive = higher.
Legend:
Assay in all cases: inhibition of tumour cell growth, NCI panel, 48 h
A549 = test system: A549
Hs-578T = test system: Hs-578T
NCI-H522 = test system: NCI-H522
Malme-3M = test system: Malme-3M
786-0 = test system: 786-0
MDA-MB-435 = test system: MDA-MB-435
U-251 = test system: U-251
KM12 = test system: KM12
HOP-92 = test system: HOP-92
HCT-15 = test system: HCT-15
BT-549 = test system: BT-549
PC-3 = test system: PC-3
SN12C = test system: SN12C
SW-620 = test system: SW-620
COLO 205 = test system: COLO 205
HCT-116 = test system: HCT-116
HT-29 = test system: HT-29
M14 = test system: M14
UACC-62 = test system: UACC-62
ACHN = test system: ACHN
UACC-257 = test system: UACC-257
RPMI-8226 = test system: RPMI-8226
SK-OV-3 = test system: SK-OV-3
HCC 2998 = test system: HCC 2998
SK-MEL-28 = test system: SK-MEL-28
SR = test system: SR
OVCAR-4 = test system: OVCAR-4
HL-60 = test system: HL-60
NCI/ADR-RES = test system: NCI/ADR-RES
K562 = test system: K562
SNB-19 = test system: SNB-19
OVCAR-8 = test system: OVCAR-8
MCF7 = test system: MCF7
MDA-MB-231 = test system: MDA-MB-231
T47D = test system: T47D
MDA-N = test system: MDA-N
A498 = test system: A498
SK-MEL-2 = test system: SK-MEL-2
SF-268 = test system: SF-268
OVCAR-5 = test system: OVCAR-5
LOX IMVI = test system: LOX IMVI
SF-295 = test system: SF-295
NCI-H23 = test system: NCI-H23
MOLT-4 = test system: MOLT-4
NCI-H226 = test system: NCI-H226
EKVX = test system: EKVX
OVCAR-3 = test system: OVCAR-3
NCI-H460 = test system: NCI-H460
DU-145 = test system: DU-145
IGROV-1 = test system: IGROV-1
TK-10 = test system: TK-10
SNB-75 = test system: SNB-75
UO-31 = test system: UO-31
CCRF-CEM = test system: CCRF-CEM
SK-MEL-5 = test system: SK-MEL-5
HOP-62 = test system: HOP-62
SF-539 = test system: SF-539
RXF 393 = test system: RXF 393
CAKI-1 = test system: CAKI-1

Measured: GI50

CC12CC1C(c1cccc([N+](=O)[O-])c1)(c1cccc([N+](=O)[O-])c1)N=N2 (stereo not given)
inactive: A549 54.7 µM | Hs-578T 21.9 µM | NCI-H522 6.7 µM | Malme-3M 18.2 µM | 786-0 20.7 µM | MDA-MB-435 36.5 µM | U-251 18.7 µM | KM12 19.6 µM | HOP-92 14.1 µM | BT-549 18.5 µM | PC-3 25 µM | SN12C 25.6 µM | SW-620 23.2 µM | COLO 205 21.6 µM | HCT-116 15.8 µM | HT-29 28 µM | M14 38.9 µM | UACC-62 15.9 µM | ACHN 15.8 µM | UACC-257 28.1 µM | RPMI-8226 2.96 µM | SK-OV-3 > 100 µM | HCC 2998 34.5 µM | SK-MEL-28 22.1 µM | SR 19.6 µM | OVCAR-4 23.1 µM | HL-60 13 µM | NCI/ADR-RES 22.9 µM | K562 29.9 µM | SNB-19 32.5 µM | OVCAR-8 25.1 µM | MCF7 35.6 µM | MDA-MB-231 16.5 µM | T47D 25.8 µM | MDA-N 23.2 µM | A498 4.28 µM | SK-MEL-2 44.7 µM | SF-268 27.7 µM | OVCAR-5 53.3 µM | LOX IMVI 13.2 µM | SF-295 57 µM | NCI-H23 19.1 µM | MOLT-4 28.3 µM | NCI-H226 25.3 µM | EKVX 37.7 µM | OVCAR-3 27.4 µM | NCI-H460 27.4 µM | DU-145 24.3 µM | IGROV-1 20.3 µM | TK-10 27.8 µM | SNB-75 24.6 µM | UO-31 10.8 µM | CCRF-CEM 3.36 µM | SK-MEL-5 26.8 µM | HOP-62 > 100 µM | SF-539 25.5 µM
20.4 µM: HCT-15

CC(=O)Nc1sc([N+](=O)[O-])cc1S(=O)(=O)c1ccc(Cl)cc1
active: SK-MEL-2 0.92 µM | SK-MEL-5 1.12 µM
inactive: A549 2.4 µM | Hs-578T 3.56 µM | NCI-H522 1.41 µM | RXF 393 2.64 µM | Malme-3M 2.48 µM | 786-0 4.66 µM | MDA-MB-435 3.3 µM | U-251 4.22 µM | KM12 2.99 µM | HOP-92 2 µM | BT-549 3.64 µM | PC-3 2.02 µM | SN12C 3.8 µM | SW-620 5.37 µM | COLO 205 1.29 µM | HCT-116 2.99 µM | HT-29 3.13 µM | M14 2.02 µM | UACC-62 1.67 µM | ACHN 2.36 µM | UACC-257 2.64 µM | RPMI-8226 3.14 µM | SK-OV-3 2.5 µM | HCC 2998 2.04 µM | SK-MEL-28 11 µM | OVCAR-4 1.86 µM | CAKI-1 3.31 µM | HL-60 1.92 µM | NCI/ADR-RES 3.22 µM | K562 5.47 µM | SNB-19 3.31 µM | OVCAR-8 3.78 µM | MCF7 2.86 µM | MDA-MB-231 4.23 µM | T47D 2.04 µM | MDA-N 3.92 µM | A498 3.17 µM | SF-268 4.35 µM | OVCAR-5 4.7 µM | LOX IMVI 3.94 µM | SF-295 2.14 µM | NCI-H23 2.39 µM | MOLT-4 3.78 µM | NCI-H226 3.96 µM | EKVX 3.59 µM | OVCAR-3 2.32 µM | NCI-H460 1.65 µM | DU-145 3.3 µM | IGROV-1 4.69 µM | TK-10 5.28 µM | SNB-75 2.21 µM | UO-31 3.09 µM | CCRF-CEM 8.2 µM | HOP-62 1.39 µM | SF-539 3.18 µM
3.85 µM: HCT-15
